Data taken from paper PMC3428502 (Brain research, 2012).
“Also recorded” adds a separate entry of the source.

Experiments:
[1] = target: T1, tyrosine hydroxylase (TH) (Rattus norvegicus, UniProt P04177); experiment: TH activity in whole dopaminergic PC6-3 cells; format: cell-based; settings: for inhibition at 20 µM: read-out: TH inhibition in PC6-3 cells; for TH inhibition in PC6-3 cells: 2 h
[2] = system: PC6-3 cells; experiment: Intracellular concentration in PC6-3 cells by HPLC; format: in vitro ADME, rat
[3] = target: T2, BSA (Bos taurus, UniProt P02769); settings: compared to DOPAL; ref Rees et al., 2009; cited from earlier work
T2 sequence (P02769 25-607): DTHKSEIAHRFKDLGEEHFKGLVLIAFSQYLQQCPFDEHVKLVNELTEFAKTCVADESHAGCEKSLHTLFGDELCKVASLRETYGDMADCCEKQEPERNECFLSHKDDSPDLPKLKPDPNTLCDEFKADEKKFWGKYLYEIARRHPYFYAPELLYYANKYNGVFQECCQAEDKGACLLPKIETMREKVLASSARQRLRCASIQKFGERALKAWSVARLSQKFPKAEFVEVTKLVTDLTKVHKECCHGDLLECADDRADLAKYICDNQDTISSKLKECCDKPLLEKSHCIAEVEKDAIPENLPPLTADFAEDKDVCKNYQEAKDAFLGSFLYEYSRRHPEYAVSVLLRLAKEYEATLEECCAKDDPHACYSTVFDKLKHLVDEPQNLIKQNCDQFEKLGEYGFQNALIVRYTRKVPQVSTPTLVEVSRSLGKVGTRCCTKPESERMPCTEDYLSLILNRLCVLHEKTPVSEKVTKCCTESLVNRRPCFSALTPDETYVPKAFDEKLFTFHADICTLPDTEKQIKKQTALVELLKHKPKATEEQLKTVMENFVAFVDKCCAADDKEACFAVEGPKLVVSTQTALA

[4] = system: PC6-3 cells; experiment: MTT assay of mitochondrial function; format: cell-based; settings: for change of mitochondrial function (MTT), in words: 5, 10, 25, 50 μM; for mitochondrial dysfunction: 50 μM
[5] = target: T1, tyrosine hydroxylase (TH); experiment: TH activity in PC6-3 cell lysate; format: biochemical; settings: read-out: inhibition of L-DOPA production in cell lysate
[6] = system: PC6-3 cells; experiment: Flow cytometry with DHE for superoxide anion; format: cell-based, rat; settings: 10 μM, 1 h incubation, vs control cells
[7] = target: T1, tyrosine hydroxylase (TH); settings: 1.0 μM; modified from previously published results; ref Mexas et al., 2011; cited from earlier work
[8] = system: PC6-3 cells; experiment: Flow cytometry with DCF-DA for hydrogen peroxide; format: cell-based, rat; settings: 5 and 10 μM, 1 h, vs control cells
[9] = target: T2, BSA; experiment: Relative protein reactivity with BSA; settings: 100 μM, BSA 1 mg/mL, 4 h, 37°C, compared to DOPAL
[10] = 20 μM placed exogenously on PC6-3 cells

T1 sequence (P04177 whole entry): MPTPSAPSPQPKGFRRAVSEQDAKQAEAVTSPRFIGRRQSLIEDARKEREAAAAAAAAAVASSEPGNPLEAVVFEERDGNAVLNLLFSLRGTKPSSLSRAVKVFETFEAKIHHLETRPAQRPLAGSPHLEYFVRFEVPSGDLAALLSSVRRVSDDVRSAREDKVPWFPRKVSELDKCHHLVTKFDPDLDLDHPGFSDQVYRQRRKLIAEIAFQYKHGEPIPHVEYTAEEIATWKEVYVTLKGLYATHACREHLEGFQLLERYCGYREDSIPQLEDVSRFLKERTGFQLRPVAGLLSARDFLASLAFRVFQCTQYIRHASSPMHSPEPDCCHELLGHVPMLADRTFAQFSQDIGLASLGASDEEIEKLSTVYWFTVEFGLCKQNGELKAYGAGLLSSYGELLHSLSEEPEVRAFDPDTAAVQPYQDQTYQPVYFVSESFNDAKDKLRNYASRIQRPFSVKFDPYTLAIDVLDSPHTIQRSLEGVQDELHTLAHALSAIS

## COc1ccc(CC=O)cc1OC [DMPAL, 3,4-Dimethoxyphenylacetaldehyde]
[1]
  inhibition at 20 µM: ~40%
[2]; [10]
  intracellular concentration: ~ 9 μM
[3]
  times less protein reactivity than DOPAL: 5 times
[4]; 2 h, vs control cells
  change of mitochondrial function (MTT), in words: no significant loss of mitochondrial viability; also recorded: no changes to mitochondrial function; also recorded: no significant toxicity

## O=CCC=O [MDA, Malondialdehyde, reference compound]
[1]; 5 μM, used to inhibit ALDH and AR, data not shown
  effect on TH activity: does not inhibit or alter TH activity

## O=CCc1ccccc1 [PAL, phenylacetaldehyde]
[1]
  inhibition at 20 µM: ~50%
[2]; [10]
  intracellular concentration: 9 to 12 µM
[3]
  times less protein reactivity than DOPAL: 10 times
[4]; 10 μM, 2 h, vs control cells
  loss of mitochondrial viability: ~ 15%
[4]; 25 μM, vs controls
  loss of mitochondrial viability: ~ 15%
[4]; 2 h, vs control cells
  mitochondrial dysfunction: ~ 25%
  change of mitochondrial function (MTT), in words: some concentration-dependent dysfunction
[5]
  inhibition at 20 µM: ~50%

## O=CCc1ccc(O)c(O)c1 [DOPAL, 3,4-dihydroxyphenylacetaldehyde, reference compound]
[1]; 5 μM placed exogenously, intracellular 4–5 μM
  TH inhibition in PC6-3 cells: ~ 60%
[1]; DOPAL-treated cells vs control cells, data not shown
  decrease of DA concentration in PC6-3 cells: ~ 40%
[2]; rat, 5 μM, pH 7.4
  intracellular concentration: 4 to 5 µM
[6]
  superoxide anion production (DHE): significantly different from control cells
[7]
  TH inhibition in cell lysate: ~95%
[8]
  hydrogen peroxide production (DCF-DA): significantly less hydrogen peroxide than controls cells

## COc1cc(CC=O)ccc1O [MOPAL, 3-methoxy-4-hydroxyphenylacetaldehyde]
[1]
  inhibition at 20 µM: ~50%
[2]; rat, 20 μM, pH 7.4
  intracellular concentration: 9 to 12 µM
[3]
  times less protein reactivity than DOPAL: 5 times
[4]; 2 h, vs control cells
  mitochondrial dysfunction: ~ 25%
  change of mitochondrial function (MTT), in words: some concentration-dependent dysfunction
[5]
  inhibition at 20 µM: ~50%

## N#CCc1ccc(O)c(O)c1 [DHPAN, 3,4-Dihydroxyphenylacetonitrile]
[9]
  Relative protein reactivity (NBT staining of BSA): no significant staining by NBT
[1]; 20 μM final concentration
  TH inhibition in PC6-3 cells: no significant TH inhibition
[4]; 2 h, vs control cells
  change of mitochondrial function (MTT), in words: no significant loss of mitochondrial viability; also recorded: no changes to mitochondrial function; also recorded: no significant toxicity
